Legend:
Type in all cases: in vivo
Conditions in all cases: evaluated after 13 days
Setaria faberi (SETFA) [1] = assay: Pre-emergence Test, Setaria faberi (SETFA)
[2] = test system: Echinochloa crus-galli (ECHCG); assay: Pre-emergence Test, Echinochloa crus-galli (ECHCG)
Zea mays (ZEAMX) [3] = assay: Pre-emergence Test, Zea mays (ZEAMX)
[4] = test system: Ipomoea hederacea (IPOHE); assay: Pre-emergence Test, Ipomoea hederacea (IPOHE)
[5] = test system: Amaranthus palmeri (AMAPA); assay: Pre-emergence Test, Amaranthus palmeri (AMAPA)
[6] = test system: Amaranthus retoflexus (AMARE); assay: Pre-emergence Test, Amaranthus retoflexus (AMARE)
Setaria faberi (SETFA) [7] = assay: Post-emergence Test, Setaria faberi (SETFA); design: key to percentage damage caused to the plant, SETFA (five-point scale): 5=81-100%, 4=61-80%, 3=41-60%, 2=21-40%, 1=0-20% damage
Method in brief: (§1)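 Pots sprayed with compound in acetone/water (50:50) with 0.5% Tween 20, at 1000 g/ha unless noted, glasshouse 24/16 °C, 14 h light, 65% humidity. Damage scored 13 days after spraying on a five-point scale (5=81-100% to 1=0-20%).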

[8] = test system: Echinochloa crus-galli (ECHCG); assay: Post-emergence Test, Echinochloa crus-galli (ECHCG); design: key to percentage damage caused to the plant, ECHCG (five-point scale): 5=81-100%, 4=61-80%, 3=41-60%, 2=21-40%, 1=0-20% damage
Method in brief: as §1

Zea mays (ZEAMX) [9] = assay: Post-emergence Test, Zea mays (ZEAMX); design: key to percentage damage caused to the plant, ZEAMX (five-point scale): 5=81-100%, 4=61-80%, 3=41-60%, 2=21-40%, 1=0-20% damage
Method in brief: as §1

[10] = test system: Ipomoea hederacea (IPOHE); assay: Post-emergence Test, Ipomoea hederacea (IPOHE); design: key to percentage damage caused to the plant, IPOHE (five-point scale): 5=81-100%, 4=61-80%, 3=41-60%, 2=21-40%, 1=0-20% damage
Method in brief: as §1

[11] = test system: Amaranthus palmeri (AMAPA); assay: Post-emergence Test, Amaranthus palmeri (AMAPA); design: key: 5=81-100%, 4=61-80%, 3=41-60%, 2=21-40%, 1=0-20% damage
Method in brief: as §1

[12] = test system: Amaranthus retoflexus (AMARE); assay: Post-emergence Test, Amaranthus retoflexus (AMARE); design: key to percentage damage caused to the plant, AMARE (five-point scale): 5=81-100%, 4=61-80%, 3=41-60%, 2=21-40%, 1=0-20% damage
Method in brief: as §1

Row | SMILES | Pre-emergence Test SETFA, percentage damage caused to the plant (five-point scale) (Setaria faberi (SETFA) [1]; 1000 g/ha) | Pre-emergence Test ECHCG, percentage damage caused to the plant (five-point scale) ([2]; 1000 g/ha) | Pre-emergence Test ZEAMX, percentage damage caused to the plant (five-point scale) (Zea mays (ZEAMX) [3]; 1000 g/ha) | Pre-emergence Test IPOHE, percentage damage caused to the plant (five-point scale) ([4]; 1000 g/ha) | Pre-emergence Test AMAPA, percentage damage caused to the plant (five-point scale) ([5]; 1000 g/ha) | Pre-emergence Test AMARE, percentage damage caused to the plant (five-point scale) ([6]; 1000 g/ha) | percentage damage caused to the plant, SETFA (five-point scale) (Setaria faberi (SETFA) [7]; 1000 g/ha) | percentage damage caused to the plant, ECHCG (five-point scale) ([8]; 1000 g/ha) | percentage damage caused to the plant, ZEAMX (five-point scale) (Zea mays (ZEAMX) [9]; 1000 g/ha) | percentage damage caused to the plant, IPOHE (five-point scale) ([10]; 1000 g/ha) | percentage damage caused to the plant, AMAPA (five-point scale) ([11]; 1000 g/ha) | percentage damage caused to the plant, AMARE (five-point scale) ([12]; 1000 g/ha) | other results
1 | CCn1c(Cn2cnc(Cl)n2)cc(=O)c(C(=O)O)c1-c1ccc(Cl)c(Cl)c1 [Compound 5, 6-[(3-chloro-1,2,4-triazol-1-yl)methyl]-2-(3,4-dichlorophenyl)-1-ethyl-4-oxo-pyridine-3-carboxylic acid] | 3 (3=41-60%) | 4 (4=61-80%) | 0 | 0 | 2 (2=21-40%) | 0 | 4 (4=61-80%) | 1 (1=0-20%) | 2 (2=21-40%) | 1 (1=0-20%) | 1 (1=0-20%) | 1 (1=0-20%) | Pre-emergence Test SETFA, percentage damage caused to the plant (five-point scale) (Setaria faberi (SETFA) [1]; 250 g/Ha (*)): 2 (2=21-40%); Pre-emergence Test ECHCG, percentage damage caused to the plant (five-point scale) ([2]; 250 g/Ha (*)): 3 (3=41-60%); Pre-emergence Test ZEAMX, percentage damage caused to the plant (five-point scale) (Zea mays (ZEAMX) [3]; 250 g/Ha (*)): 0; Pre-emergence Test IPOHE, percentage damage caused to the plant (five-point scale) ([4]; 250 g/Ha (*)): 0; Pre-emergence Test AMAPA, percentage damage caused to the plant (five-point scale) ([5]; 250 g/Ha (*)): 0; Pre-emergence Test AMARE, percentage damage caused to the plant (five-point scale) ([6]; 250 g/Ha (*)): 0
2 | COCCn1c(Cn2ccc(C(F)(F)F)n2)cc(=O)c(C(=O)O)c1-c1ccc(Cl)c(Cl)c1 [Compound 170, 2-(3,4-dichlorophenyl)-1-(2-methoxyethyl)-4-oxo-6-[[3-(trifluoromethyl)pyrazol-1-yl]methyl]pyridine-3-carboxylic acid] | 4 (4=61-80%) | 3 (3=41-60%) | 0 | 2 (2=21-40%) | 0 | 0 | 4 (4=61-80%) | 4 (4=61-80%) | 1 (1=0-20%) | 3 (3=41-60%) | 1 (1=0-20%) | 1 (1=0-20%) | percentage damage caused to the plant, SETFA (five-point scale) (Setaria faberi (SETFA) [7]; 250 g/Ha): 3 (3=41-60%); percentage damage caused to the plant, ECHCG (five-point scale) ([8]; 250 g/Ha): 3 (3=41-60%); percentage damage caused to the plant, ZEAMX (five-point scale) (Zea mays (ZEAMX) [9]; 250 g/Ha): 0; percentage damage caused to the plant, IPOHE (five-point scale) ([10]; 250 g/Ha): 3 (3=41-60%); percentage damage caused to the plant, AMAPA (five-point scale) ([11]; 250 g/Ha): 0; percentage damage caused to the plant, AMARE (five-point scale) ([12]; 250 g/Ha): 0
